Reference: patent publication US11806342B2, “Diiodohydroxyquinoline for the treatment of clostridium difficile infection” (Purdue Research Foundation, priority 2019, dated 2023)
Values after ≈ are worked out from the molar mass of the structure shown.

How the values were obtained:
[1] = test system: 38 tested C. difficile strains; experiment: MIC and MBC over the panel of clinical isolates (MIC50, MIC90, range); format: cell-based, Clostridium difficile; details: for MIC90: concentration inhibiting growth of 90% of the tested isolates, read-out: MIC90
Procedure: MIC50 and MIC90 are the minimum concentration of each agent that inhibited growth of 50% and 90% of the tested isolates, respectively. The minimum bactericidal concentration (MBC) of these drugs was tested by plating 5 μL from wells with no growth onto BHIS agar plates. The MBC was categorized as the lowest concentration that reduced bacterial growth by 99.9% MIC50 and MIC90 are the minimum concentration of each agent that inhibited the growth of 50% and 90% of the tested isolates, respectively. The minimum bactericidal concentration (MBC) of these drugs was tested by plating 5 μL from wells with no growth onto BHIS agar plates. The MBC was categorized as the lowest concentration that reduced bacterial growth by 99.9% [29-31].

[2] = test system: C. difficile ATCC BAA-1870; experiment: Toxin A and B production inhibition, ELISA; format: cell-based, Clostridium difficile; details: for inhibition of total toxin production: 8 hours
Procedure: (§1) To investigate DIHQs toxin production inhibitory activity, toxin A and toxin B levels were measured as described previously. […] An aliquot from each tube was diluted and plated on BHIS agar plates and incubated anaerobically at 37° C. for 24 hours to detect the bacterial count. The total concentration of C. difficile toxin A and B was measured in the supernatant of each tube using enzyme linked immunosorbent assay (ELISA) kit (tgc BIOMICS, Dunwoody, GA) following the manufacturer's instructions. The (OD450-OD620) values, corresponding to the toxin concentration, were measured for DIHQ and control drugs.

C. difficile NR-49277 = experiment: Toxin A and B production inhibition, ELISA; format: cell-based, Clostridium difficile; details: for inhibition of total toxin production: 8 hours
Procedure: as §1

C. difficile ATCC 43255 [3] = experiment: Toxin A and B production inhibition, ELISA; format: cell-based, Clostridium difficile; details: for inhibition of total toxin production: 8 hours
Procedure: as §1

[4] = test system: Bifidobacterium adolescentis HM-633; experiment: MIC against normal gut microflora, broth microdilution; format: cell-based; details: HM633; Bifidobacterium adolescentis HM-633; read-out: MIC
Procedure: (§2) In vitro antimicrobial evaluation of diiodohydroxyquinoline against normal microflora. The broth microdilution assay was utilized to determine the MICs of DIHQ and control antibiotics against commensal organisms that compose he human gut microflora, as described elsewhere. A bacterial solution equivalent to 0.5 McFarland standard was prepared and diluted in BHIS broth (for Bifidobacterium and Bacteroides) or in MRS broth (for Lactobacillus) to achieve a bacterial concentration of about 5×10^5 CFU/mL. Then, drugs were added and serially diluted along the plates.

[5] = test system: Lactobacillus crispatus HM-371; experiment: as above; format: cell-based; details: HM371; Lactobacillus crispatus HM-371; read-out: MIC
Procedure: as §2

[6] = test system: Bacteroides fragilis HM-714; experiment: as above; format: cell-based; details: HM714; Bacteroides fragilis HM-714; read-out: MIC
Procedure: as §2

[7] = test system: Bacteroides fragilis HM-710; experiment: as above; format: cell-based; details: HM710; Bacteroides fragilis HM-710; read-out: MIC
Procedure: as §2

[8] = test system: Bacteroides fragilis HM-709; experiment: as above; format: cell-based; details: HM709; Bacteroides fragilis HM-709; read-out: MIC
Procedure: as §2

Bacteroides dorei HM-718 = experiment: as above; format: cell-based; details: Phocaeicola dorei, HM718; Bacteroides dorei HM-718; read-out: MIC
Procedure: as §2

Bacteroides dorei HM-29 = experiment: as above; format: cell-based; details: Phocaeicola dorei, HM29; Bacteroides dorei HM-29; read-out: MIC
Procedure: as §2

[9] = test system: Bifidobacterium longum HM-845; experiment: as above; format: cell-based; details: HM845; Bifidobacterium longum HM-845; read-out: MIC
Procedure: as §2

Bacteroides dorei HM-717 = experiment: as above; format: cell-based; details: Phocaeicola dorei, HM717; Bacteroides dorei HM-717; read-out: MIC
Procedure: as §2

[10] = test system: Lactobacillus reuteri HM-102; experiment: as above; format: cell-based; details: Limosilactobacillus reuteri, HM102; Lactobacillus reuteri HM-102; read-out: MIC
Procedure: as §2

[11] = test system: Bifidobacterium longum HM-847; experiment: as above; format: cell-based; details: HM847; Bifidobacterium longum HM-847; read-out: MIC
Procedure: as §2

[12] = test system: Bifidobacterium breve HM-411; experiment: as above; format: cell-based; details: HM411; Bifidobacterium breve HM-411; read-out: MIC
Procedure: as §2

C. difficile ATCC 43255 [13] = experiment: Initial screening of antiparasitic drugs, broth microdilution MIC; format: cell-based, Clostridium difficile; details: Clostridioides difficile, ATCC43255; initial screening, C. difficile ATCC 43255; read-out: MIC
Procedure: C. difficile strains were grown anaerobically on brain heart infusion supplemented (BHIS) agar plates at 37° C. for 48 hours. Afterwards, a bacterial solution equivalent to 0.5 McFarland standard was prepared and diluted in (BHIS) broth to achieve a bacterial concentration of about 5×10^5 CFU/mL. Drugs were added and serially diluted along the plates. Plates were then, incubated anaerobically at 37° C. for 48 hours. MICs reported in Table (1) are the minimum concentrations of the drugs that could completely suppress the visual growth of bacteria.

C. difficile ATCC 9689 = experiment: Checkerboard assay, DIHQ with metronidazole or vancomycin; format: cell-based, Clostridium difficile
Procedure: (§3) Interactions between diiodohydroxyquinoline and the anticlostridial drugs (metronidazole and vancomycin) against Clostridium difficile clinical isolates. […] The fractional inhibitory concentration index (ΣFIC) was calculated for each interaction. Interactions where the ΣFIC index was ≤0.5 were categorized as synergistic (SYN).

C. difficile P11 = experiment: as above; format: cell-based, Clostridium difficile
Procedure: as §3

[14] = test system: C. difficile ATCC BAA-1870; experiment: as above; format: cell-based, Clostridium difficile; details: C. difficile ATCC BAA-1870
Procedure: (§4) The fractional inhibitory concentration index (ΣFIC) was calculated for each interaction. Interactions where the ΣFIC index was ≤0.5 were categorized as synergistic (SYN).

C. difficile ATCC 43255 [15] = experiment: as above; format: cell-based, Clostridium difficile; details: C. difficile ATCC 43255
Procedure: as §4

C. difficile I9 = experiment: as above; format: cell-based, Clostridium difficile; details: C. difficile I9
Procedure: as §4

## CCc1c(Cl)c(O)c(Cl)c(O)c1C(=O)O[C@H]1[C@H](O)[C@H](OC)[C@H](OC/C2=C\C=C\C[C@H](O)/C(C)=C/[C@H](CC)[C@@H](O[C@@H]3OC(C)(C)[C@@H](OC(=O)C(C)C)[C@H](O)[C@@H]3O)/C(C)=C/C(C)=C/C[C@@H]([C@@H](C)O)OC2=O)O[C@@H]1C [Fidaxomicin, fidaxomicin]
[1]; Clostridioides difficile, concentration inhibiting growth of 50% of the tested isolates, read-out: MIC50
  MIC50: 0.015 µg/mL (≈ 0.0142 µM)
[1]; Clostridioides difficile
  MIC90: 0.06 µg/mL (≈ 0.0567 µM)
[2]; C. difficile ATCC BAA-1870, ¼×MIC
  inhibition of total toxin production: 31.9%
[2]; C. difficile ATCC BAA-1870, ½×MIC
  inhibition of total toxin production: 46.2%
C. difficile NR-49277; C. difficile NR-49277, ¼×MIC
  inhibition of total toxin production: 58.8%
C. difficile NR-49277; C. difficile NR-49277, ½×MIC
  inhibition of total toxin production: 67.4%
C. difficile ATCC 43255 [3]; C. difficile ATCC 43255, ¼×MIC
  inhibition of total toxin production: 14.3%
C. difficile ATCC 43255 [3]; C. difficile ATCC 43255, ½×MIC
  inhibition of total toxin production: 37%
[4]
  MIC: ≤ 1 µg/mL
[5]
  MIC: > 128 µg/mL
[6]
  MIC: > 128 µg/mL
[7]
  MIC: > 128 µg/mL
[8]
  MIC: > 128 µg/mL
Bacteroides dorei HM-718
  MIC: > 128 µg/mL
Bacteroides dorei HM-29
  MIC: > 128 µg/mL
[9]
  MIC: ≤ 1 µg/mL
Bacteroides dorei HM-717
  MIC: > 128 µg/mL
[10]
  MIC: > 128 µg/mL
[11]
  MIC: ≤ 1 µg/mL
[12]
  MIC: 2 µg/mL (≈ 1.89 µM)

## Cc1ncc([N+](=O)[O-])n1CCO [Metronidazole, metronidazole]
[1]; Clostridioides difficile
  MIC90: 0.25 µg/mL (≈ 1.46 µM)
[1]; over the 38 tested C. difficile strains
  MIC range: 0.06 to 0.5 µg/mL
[2]; C. difficile ATCC BAA-1870, ¼×MIC and ½×MIC
  toxin inhibition (in words): No toxin inhibition
C. difficile NR-49277; C. difficile NR-49277, ¼×MIC and ½×MIC
  toxin inhibition (in words): No toxin inhibition
C. difficile ATCC 43255 [3]; C. difficile ATCC 43255, ¼×MIC and ½×MIC
  toxin inhibition (in words): No toxin inhibition
C. difficile ATCC 43255 [13]
  MIC: 0.25 µg/mL (≈ 1.46 µM)
C. difficile ATCC 9689; C. difficile ATCC 9689
  MIC of metronidazole combined with DIHQ: 0.03 µg/mL
C. difficile ATCC 9689; Clostridioides difficile, ATCC9689, C. difficile ATCC 9689, Table 3, read-out: MIC alone
  MIC: 0.25 µg/mL
C. difficile P11; C. difficile P11
  MIC of metronidazole combined with DIHQ: 0.03 µg/mL
C. difficile P11; Clostridioides difficile, C. difficile P11, Table 3, read-out: MIC alone
  MIC: 0.25 µg/mL
[4]
  MIC: ≤ 1 µg/mL
[5]
  MIC: > 128 µg/mL
[6]
  MIC: ≤ 1 µg/mL
[7]
  MIC: 2 µg/mL (≈ 11.7 µM)
[8]
  MIC: 2 µg/mL (≈ 11.7 µM)
Bacteroides dorei HM-718
  MIC: ≤ 1 µg/mL
Bacteroides dorei HM-29
  MIC: ≤ 1 µg/mL
[9]
  MIC: ≤ 1 µg/mL
Bacteroides dorei HM-717
  MIC: ≤ 1 µg/mL
[10]
  MIC: > 128 µg/mL
[11]
  MIC: ≤ 1 µg/mL
[12]
  MIC: 2 µg/mL (≈ 11.7 µM)
[14]
  MIC of metronidazole combined with DIHQ: 0.015 µg/mL
C. difficile ATCC 43255 [15]
  MIC of metronidazole combined with DIHQ: 0.015 µg/mL
C. difficile I9
  MIC of metronidazole combined with DIHQ: 0.015 µg/mL
